Experimental data reported in ChEMBL document CHEMBL1201861, “Genomics of Drug Sensitity in Cancer screening data, Wellcome Trust Sanger Institute”.

Experiments:
Test in all cases: cells
KYSE-270 = type: functional, cell-based, Homo sapiens; conditions: Homo sapiens, KYSE-270;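 note: cell growth inhibition measured with a viability assay in the human KYSE-270 line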
Description: SANGER: Inhibition of human KYSE-270 cell growth in a cell viability assay.

HCT-116 = type: functional, cell-based, Homo sapiens; conditions: Homo sapiens, HCT-116
Description: SANGER: Inhibition of human HCT-116 cell growth in a cell viability assay.

NCI-H2228 = type: functional, cell-based, Homo sapiens; conditions: Homo sapiens, NCI-H2228;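 note: growth inhibition of human NCI-H2228 cells, read out by a cell viability assay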
Description: SANGER: Inhibition of human NCI-H2228 cell growth in a cell viability assay.

ACN = type: functional, cell-based, Homo sapiens; conditions: Homo sapiens, ACN;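 note: growth inhibition of the human ACN cell line, read out via cell viability testing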
Description: SANGER: Inhibition of human ACN cell growth in a cell viability assay.

KP-4 = type: functional, cell-based, Homo sapiens; conditions: Homo sapiens, KP-4; read-out: IC50;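 note: human KP-4 cells, with growth inhibition read out through a cell viability assay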
Description: SANGER: Inhibition of human KP-4 cell growth in a cell viability assay.

SK-PN-DW = type: functional, cell-based; conditions: Homo sapiens;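 note: growth inhibition measured with a viability assay on these cells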
Description: SANGER: Inhibition of human SK-PN-DW cell growth in a cell viability assay.

no-11 = type: functional, cell-based, Homo sapiens; conditions: Homo sapiens;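 note: growth inhibition of human NO-11 cells, read out with a cell viability assay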
Description: SANGER: Inhibition of human no-11 cell growth in a cell viability assay.

A388 = type: functional, cell-based, Homo sapiens; conditions: Homo sapiens, A388;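 note: growth inhibition of human A388 cells, read out with a cell viability assay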
Description: SANGER: Inhibition of human A388 cell growth in a cell viability assay.

NB6 = type: functional, cell-based, Homo sapiens; conditions: Homo sapiens, NB6;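 note: growth inhibition of NB6 cells, read out by a cell viability assay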
Description: SANGER: Inhibition of human NB6 cell growth in a cell viability assay.

NCI-H441 = type: functional, cell-based; conditions: Homo sapiens;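 note: growth inhibition of NCI-H441 cells, read out with a cell viability assay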
Description: SANGER: Inhibition of human NCI-H441 cell growth in a cell viability assay.

HL-60 = type: functional, cell-based; conditions: Homo sapiens;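 note: growth inhibition of human HL-60 cells, read out with a cell viability assay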
Description: SANGER: Inhibition of human HL-60 cell growth in a cell viability assay.

NB12 = type: functional, cell-based, Homo sapiens; conditions: Homo sapiens, NB12;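 note: growth inhibition of human NB12 cells, read out by a cell viability assay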
Description: SANGER: Inhibition of human NB12 cell growth in a cell viability assay.

NCI-H1155 = type: functional, cell-based; conditions: Homo sapiens;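 note: cell growth inhibition measured by a viability assay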
Description: SANGER: Inhibition of human NCI-H1155 cell growth in a cell viability assay.

MKN-1 = type: functional, cell-based, Homo sapiens; conditions: Homo sapiens, MKN-1;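 note: growth inhibition of human MKN1 cells, read out by a cell viability measurement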
Description: SANGER: Inhibition of human MKN1 cell growth in a cell viability assay.

SW982 = type: functional, cell-based; conditions: Homo sapiens;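 note: growth inhibition of SW982 cells, read out with a cell viability assay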
Description: SANGER: Inhibition of human SW982 cell growth in a cell viability assay.

T47D = type: functional, cell-based, Homo sapiens; conditions: Homo sapiens, T47D;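 note: growth inhibition of human T47D cells, measured with a cell viability assay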
Description: SANGER: Inhibition of human T47D cell growth in a cell viability assay.

ES7 = type: functional, cell-based, Homo sapiens; conditions: Homo sapiens, ES7;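 note: growth inhibition of cultured human ES7 cells, read out as cell viability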
Description: SANGER: Inhibition of human ES7 cell growth in a cell viability assay.

HOS = type: functional, cell-based, Homo sapiens; conditions: Homo sapiens, HOS;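 note: growth inhibition of human HOS cells, read out with a cell viability assay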
Description: SANGER: Inhibition of human HOS cell growth in a cell viability assay.

NCI-H720 = type: functional, cell-based; conditions: Homo sapiens;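 note: growth inhibition of human NCI-H720 cells determined by a cell viability assay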
Description: SANGER: Inhibition of human NCI-H720 cell growth in a cell viability assay.

CTB-1 = type: functional, cell-based; conditions: Homo sapiens
Description: SANGER: Inhibition of human CTB-1 cell growth in a cell viability assay.

HOP-92 = type: functional, cell-based, Homo sapiens; conditions: Homo sapiens, HOP-92;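 note: cell viability readout, with IC50 reflecting inhibition of HOP-92 cell growth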
Description: SANGER: Inhibition of human HOP-92 cell growth in a cell viability assay.

NCI-H2122 = type: functional, cell-based, Homo sapiens; conditions: Homo sapiens, NCI-H2122;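 note: growth inhibition of the cells, read out with a cell viability assay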
Description: SANGER: Inhibition of human NCI-H2122 cell growth in a cell viability assay.

S-117 = type: functional, cell-based, Homo sapiens; conditions: Homo sapiens, S-117
Description: SANGER: Inhibition of human S-117 cell growth in a cell viability assay.

HCC1954 = type: functional, cell-based, Homo sapiens; conditions: Homo sapiens, HCC1954;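 note: growth inhibition of human HCC1954 cells, read out with a cell viability assay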
Description: SANGER: Inhibition of human HCC1954 cell growth in a cell viability assay.

ES5 = type: functional, cell-based, Homo sapiens; conditions: Homo sapiens, ES5;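 note: growth inhibition of human ES5 cells, read out by a cell viability assay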
Calu-3 = type: functional, cell-based, Homo sapiens; conditions: Homo sapiens, Calu-3;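 note: growth inhibition of human Calu-3 cells, determined with a cell viability assay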
Description: SANGER: Inhibition of human Calu-3 cell growth in a cell viability assay.

NCI-H1648 = type: functional, cell-based, Homo sapiens; conditions: Homo sapiens, NCI-H1648;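 note: cell viability assay measuring inhibition of NCI-H1648 cell growth, from the Sanger screening data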
Description: SANGER: Inhibition of human NCI-H1648 cell growth in a cell viability assay.

TE-11 = type: functional, cell-based, Homo sapiens; conditions: Homo sapiens, TE-11;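 note: growth inhibition of human TE-11 cells, read out by a cell viability assay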
Description: SANGER: Inhibition of human TE-11 cell growth in a cell viability assay.

SK-HEP1 = type: functional, cell-based, Homo sapiens, SK-HEP-1; conditions: Homo sapiens, SK-HEP1;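 note: cell viability readout used to quantify reduction in proliferation of human SK-HEP-1 cells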
Description: SANGER: Inhibition of human SK-HEP-1 cell growth in a cell viability assay.

ESS-1 = type: functional, cell-based, Homo sapiens; conditions: Homo sapiens, ESS-1;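 note: growth inhibition of human ESS-1 cells, read out by a cell viability assay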
Description: SANGER: Inhibition of human ESS-1 cell growth in a cell viability assay.

KINGS-1 = type: functional, cell-based, Homo sapiens; conditions: Homo sapiens, KINGS-1;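 note: cell viability assay measuring suppression of KINGS-1 cell growth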
Description: SANGER: Inhibition of human KINGS-1 cell growth in a cell viability assay.

QIMR-WIL = type: functional, cell-based; conditions: Homo sapiens;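 note: growth inhibition of QIMR-WIL cells, read out with a cell viability assay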
Description: SANGER: Inhibition of human QIMR-WIL cell growth in a cell viability assay.

BCPAP = type: functional, cell-based, Homo sapiens; conditions: Homo sapiens, BCPAP;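 note: growth inhibition of BCPAP cells, read out in a cell viability assay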
Description: SANGER: Inhibition of human BCPAP cell growth in a cell viability assay.

COLO-792 = type: functional, cell-based, Homo sapiens; conditions: Homo sapiens, COLO-792
Description: SANGER: Inhibition of human COLO-792 cell growth in a cell viability assay.

GB-1 = type: functional, cell-based, Homo sapiens; conditions: Homo sapiens, GB-1;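 note: growth of GB-1 cells judged by a viability assay, IC50 marks the concentration inhibiting growth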
Description: SANGER: Inhibition of human GB-1 cell growth in a cell viability assay.

HCE-4 = type: functional, cell-based, Homo sapiens; conditions: Homo sapiens, HCE-4;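 note: cell viability assay measuring inhibition of growth in the human HCE-4 cell line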
Description: SANGER: Inhibition of human HCE-4 cell growth in a cell viability assay.

HMV-2 cell line = type: functional, cell-based, Homo sapiens; conditions: Homo sapiens, HMV-2;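 note: growth inhibition of HMV-II cells, read out with a cell viability assay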
Description: SANGER: Inhibition of human HMV-II cell growth in a cell viability assay.

GOTO = type: functional, cell-based, Homo sapiens; conditions: Homo sapiens, GOTO;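 note: growth inhibition of GOTO cells, read out by a cell viability assay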
Description: SANGER: Inhibition of human GOTO cell growth in a cell viability assay.

SNU-5 = type: functional, cell-based; conditions: Homo sapiens;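 note: cell viability readout used to measure growth inhibition in human NCI-SNU-5 cells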
Description: SANGER: Inhibition of human NCI-SNU-5 cell growth in a cell viability assay.

GR-ST = type: functional, cell-based; conditions: Homo sapiens
Description: SANGER: Inhibition of human GR-ST cell growth in a cell viability assay.

SHP77 = type: functional, cell-based, Homo sapiens, SHP-77; conditions: Homo sapiens, SHP77;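 note: growth inhibition of human SHP-77 cells measured by a cell viability assay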
Description: SANGER: Inhibition of human SHP-77 cell growth in a cell viability assay.

SW1573 = type: functional, cell-based, Homo sapiens; conditions: Homo sapiens, SW1573;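 note: growth inhibition of SW1573 cells, read out with a cell viability assay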
Description: SANGER: Inhibition of human SW1573 cell growth in a cell viability assay.

NCI-H1755 = type: functional, cell-based, Homo sapiens; conditions: Homo sapiens, NCI-H1755;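 note: cell viability readout used to measure growth inhibition of NCI-H1755 cells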
Description: SANGER: Inhibition of human NCI-H1755 cell growth in a cell viability assay.

HEL = type: functional, cell-based, Homo sapiens; conditions: Homo sapiens, HEL;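 note: growth inhibition of HEL cells, read out with a cell viability assay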
Description: SANGER: Inhibition of human HEL cell growth in a cell viability assay.

MKN-7 = type: functional, cell-based, Homo sapiens; conditions: Homo sapiens, MKN-7;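 note: growth inhibition of MKN-7 cells, read out with a cell viability assay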
Description: SANGER: Inhibition of human MKN7 cell growth in a cell viability assay.

TK-10 = type: functional, cell-based, Homo sapiens; conditions: Homo sapiens, TK-10;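 note: growth inhibition of TK-10 cells, read out in a cell viability assay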
Description: SANGER: Inhibition of human TK10 cell growth in a cell viability assay.

SH-4 = type: functional, cell-based, Homo sapiens; conditions: Homo sapiens, SH-4;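 note: growth inhibition of SH-4 cells, read out with a cell viability assay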
Description: SANGER: Inhibition of human SH-4 cell growth in a cell viability assay.

SK-MEL-2 = type: functional, cell-based, Homo sapiens; conditions: Homo sapiens, SK-MEL-2;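 note: growth inhibition of human SK-MEL-2 cells measured with a cell viability assay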
Description: SANGER: Inhibition of human SK-MEL-2 cell growth in a cell viability assay.

NCI-H1792 = type: functional, cell-based, Homo sapiens; conditions: Homo sapiens, NCI-H1792;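 note: growth inhibition of human NCI-H1792 cells, read out as cell viability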
Description: SANGER: Inhibition of human NCI-H1792 cell growth in a cell viability assay.

LU-139 = type: functional, cell-based; conditions: Homo sapiens
Description: SANGER: Inhibition of human LU-139 cell growth in a cell viability assay.

T-24 = type: functional, cell-based, Homo sapiens; conditions: Homo sapiens, T-24;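 note: growth inhibition of T-24 cells, read out with a cell viability assay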
Description: SANGER: Inhibition of human T-24 cell growth in a cell viability assay.

NCI-H2052 = type: functional, cell-based, Homo sapiens; conditions: Homo sapiens, NCI-H2052;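 note: growth inhibition of NCI-H2052 cells, read out with a cell viability assay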
Description: SANGER: Inhibition of human NCI-H2052 cell growth in a cell viability assay.

O=C1N=C(NCc2cccs2)S/C1=C\c1ccc2ncccc2c1
IC50 (KYSE-270): > 5 µM
IC50 (HCT-116): > 5 µM
IC50 (NCI-H2228): > 5 µM
IC50 (ACN): > 5 µM
IC50 (KP-4): > 5 µM
IC50 (SK-PN-DW): > 5 µM
IC50 (no-11): > 5 µM
IC50 (A388): > 5 µM
IC50 (NB6): > 5 µM
IC50 (NCI-H441): > 5 µM
IC50 (HL-60): > 5 µM
IC50 (NB12): > 5 µM
IC50 (NCI-H1155): > 5 µM
IC50 (MKN-1): > 5 µM
IC50 (SW982): > 5 µM
IC50 (T47D): > 5 µM
IC50 (ES7): > 5 µM
IC50 (HOS): > 5 µM
IC50 (NCI-H720): > 5 µM
IC50 (CTB-1): > 5 µM
IC50 (HOP-92): > 5 µM
IC50 (NCI-H2122): > 5 µM
IC50 (S-117): > 5 µM
IC50 (HCC1954): > 5 µM
IC50 (ES5): > 5 µM
IC50 (Calu-3): > 5 µM
IC50 (NCI-H1648): > 5 µM
IC50 (TE-11): > 5 µM
IC50 (SK-HEP1): > 5 µM
IC50 (ESS-1): > 5 µM
IC50 (KINGS-1): > 5 µM
IC50 (QIMR-WIL): > 5 µM
IC50 (BCPAP): > 5 µM
IC50 (COLO-792): > 5 µM
IC50 (GB-1): > 5 µM
IC50 (HCE-4): > 5 µM
IC50 (HMV-2 cell line): > 5 µM
IC50 (GOTO): > 5 µM
IC50 (SNU-5): > 5 µM
IC50 (GR-ST): > 5 µM
IC50 (SHP77): > 5 µM
IC50 (SW1573): > 5 µM
IC50 (NCI-H1755): > 5 µM
IC50 (HEL): > 5 µM
IC50 (MKN-7): > 5 µM
IC50 (TK-10): > 5 µM
IC50 (SH-4): > 5 µM
IC50 (SK-MEL-2): > 5 µM
IC50 (NCI-H1792): > 5 µM
IC50 (LU-139): > 5 µM
IC50 (T-24): > 5 µM
IC50 (NCI-H2052): > 5 µM

COC(=O)CNC(=O)C(=O)OC
IC50 (KYSE-270): 275 µM
IC50 (HCT-116): 658 µM
IC50 (NCI-H2228): 42.8 µM
IC50 (ACN): 128 µM
IC50 (KP-4): 1800 µM
IC50 (SK-PN-DW): 215 µM
IC50 (no-11): 208 µM
IC50 (A388): 2460 µM
IC50 (NB6): 1920 µM
IC50 (NCI-H441): 839 µM
IC50 (HL-60): 157 µM
IC50 (NB12): 85.4 µM
IC50 (NCI-H1155): 1540 µM
IC50 (MKN-1): 2190 µM
IC50 (SW982): 33.7 µM
IC50 (T47D): > 4000 µM
IC50 (ES7): 478 µM
IC50 (HOS): 636 µM
IC50 (NCI-H720): > 4000 µM
IC50 (CTB-1): 86 µM
IC50 (HOP-92): 1960 µM
IC50 (NCI-H2122): 74.4 µM
IC50 (S-117): 3860 µM
IC50 (HCC1954): 900 µM
IC50 (ES5): > 4000 µM
IC50 (Calu-3): 65.7 µM
IC50 (NCI-H1648): 1670 µM
IC50 (TE-11): 420 µM
IC50 (SK-HEP1): 84.2 µM
IC50 (ESS-1): 198 µM
IC50 (KINGS-1): 585 µM
IC50 (QIMR-WIL): 424 µM
IC50 (BCPAP): 209 µM
IC50 (COLO-792): > 4000 µM
IC50 (GB-1): 94 µM
IC50 (HCE-4): 546 µM
IC50 (HMV-2 cell line): > 4000 µM
IC50 (GOTO): 1150 µM
IC50 (SNU-5): > 4000 µM
IC50 (GR-ST): 213 µM
IC50 (SHP77): 821 µM
IC50 (SW1573): 2520 µM
IC50 (NCI-H1755): 2740 µM
IC50 (HEL): 197 µM
IC50 (MKN-7): > 4000 µM
IC50 (TK-10): 355 µM
IC50 (SH-4): 2420 µM
IC50 (SK-MEL-2): 1960 µM
IC50 (NCI-H1792): 706 µM
IC50 (LU-139): 184 µM
IC50 (T-24): > 4000 µM
IC50 (NCI-H2052): 2880 µM

CN(C)C/C=C/C(=O)Nc1cc2c(Nc3ccc(F)c(Cl)c3)ncnc2cc1O[C@H]1CCOC1 [AFATINIB]
IC50 (KYSE-270): > 0.5 µM
IC50 (HCT-116): > 0.5 µM
IC50 (NCI-H2228): > 0.5 µM
IC50 (ACN): > 0.5 µM
IC50 (KP-4): > 0.5 µM
IC50 (SK-PN-DW): > 0.5 µM
IC50 (no-11): > 0.5 µM
IC50 (A388): 0.369 µM
IC50 (NB6): > 0.5 µM
IC50 (NCI-H441): > 0.5 µM
IC50 (HL-60): > 0.5 µM
IC50 (NB12): > 0.5 µM
IC50 (NCI-H1155): > 0.5 µM
IC50 (MKN-1): > 0.5 µM
IC50 (SW982): > 0.5 µM
IC50 (T47D): > 0.5 µM
IC50 (ES7): > 0.5 µM
IC50 (HOS): > 0.5 µM
IC50 (NCI-H720): 0.0532 µM
IC50 (CTB-1): > 0.5 µM
IC50 (HOP-92): > 0.5 µM
IC50 (NCI-H2122): > 0.5 µM
IC50 (S-117): > 0.5 µM
IC50 (HCC1954): > 0.5 µM
IC50 (ES5): > 0.5 µM
IC50 (Calu-3): > 0.5 µM
IC50 (NCI-H1648): 0.442 µM
IC50 (TE-11): > 0.5 µM
IC50 (SK-HEP1): > 0.5 µM
IC50 (ESS-1): > 0.5 µM
IC50 (KINGS-1): > 0.5 µM
IC50 (QIMR-WIL): > 0.5 µM
IC50 (BCPAP): > 0.5 µM
IC50 (COLO-792): > 0.5 µM
IC50 (GB-1): > 0.5 µM
IC50 (HCE-4): > 0.5 µM
IC50 (HMV-2 cell line): > 0.5 µM
IC50 (GOTO): > 0.5 µM
IC50 (SNU-5): > 0.5 µM
IC50 (GR-ST): > 0.5 µM
IC50 (SHP77): > 0.5 µM
IC50 (SW1573): > 0.5 µM
IC50 (NCI-H1755): > 0.5 µM
IC50 (HEL): > 0.5 µM
IC50 (MKN-7): > 0.5 µM
IC50 (TK-10): 0.267 µM
IC50 (SH-4): > 0.5 µM
IC50 (SK-MEL-2): > 0.5 µM
IC50 (NCI-H1792): > 0.5 µM
IC50 (LU-139): 0.305 µM
IC50 (T-24): > 0.5 µM
IC50 (NCI-H2052): > 0.5 µM

O=C(NOCC1CC1)c1ccc(F)c(F)c1Nc1ccc(I)cc1Cl [CI-1040]
IC50 (KYSE-270): > 10 µM
IC50 (HCT-116): 6.81 µM
IC50 (NCI-H2228): > 10 µM
IC50 (ACN): 0.267 µM
IC50 (KP-4): > 10 µM
IC50 (SK-PN-DW): > 10 µM
IC50 (no-11): > 10 µM
IC50 (A388): > 10 µM
IC50 (NB6): > 10 µM
IC50 (NCI-H441): > 10 µM
IC50 (HL-60): 0.411 µM
IC50 (NB12): > 10 µM
IC50 (NCI-H1155): 5.4 µM
IC50 (MKN-1): > 10 µM
IC50 (SW982): > 10 µM
IC50 (T47D): > 10 µM
IC50 (ES7): > 10 µM
IC50 (HOS): 5.63 µM
IC50 (NCI-H720): > 10 µM
IC50 (CTB-1): 3.47 µM
IC50 (HOP-92): 4.26 µM
IC50 (NCI-H2122): 6.62 µM
IC50 (S-117): > 10 µM
IC50 (HCC1954): > 10 µM
IC50 (ES5): > 10 µM
IC50 (Calu-3): > 10 µM
IC50 (NCI-H1648): > 10 µM
IC50 (TE-11): > 10 µM
IC50 (SK-HEP1): 5.93 µM
IC50 (ESS-1): > 10 µM
IC50 (KINGS-1): > 10 µM
IC50 (QIMR-WIL): > 10 µM
IC50 (BCPAP): 5.33 µM
IC50 (COLO-792): 2.84 µM
IC50 (GB-1): > 10 µM
IC50 (HCE-4): > 10 µM
IC50 (HMV-2 cell line): 0.645 µM
IC50 (GOTO): > 10 µM
IC50 (SNU-5): 3.68 µM
IC50 (GR-ST): 7.4 µM
IC50 (SHP77): > 10 µM
IC50 (SW1573): > 10 µM
IC50 (NCI-H1755): > 10 µM
IC50 (HEL): > 10 µM
IC50 (MKN-7): > 10 µM
IC50 (TK-10): 6.33 µM
IC50 (SH-4): 0.463 µM
IC50 (SK-MEL-2): 1.57 µM
IC50 (NCI-H1792): 9.45 µM
IC50 (LU-139): > 10 µM
IC50 (T-24): 2.91 µM
IC50 (NCI-H2052): > 10 µM
